{
  "source": "paper PMC11314063",
  "about": "“Inhibition of DNA Topoisomerase Ι by Flavonoids and Polyacetylenes Isolated from Bidens pilosa L” (Molecules, 2024)",
  "key": {"[1]": {"assay": "SRB cytotoxicity assay, hepatocyte HL-7702", "assay_type": "cell-based, human", "settings": "HL-7702 hepatocyte cell line; SRB assay, 48 h, human hepatocyte, mean ± SD; read-out: IC50 Cytotoxicity HL-7702", "source_text": "(§1) The cell lines MDA-MB-231 (No. TCHu227), A549 (No. TCHu150), and HepG2 (No. TCHu72) were obtained from the Cell Bank/Stem Cell Bank, Chinese Academy of Sciences (Shanghai, China). The cell lines DLD-1 (No. CC0507) and HCT116 (No. CC0506) were obtained from the Cell Bank of Cellcook Biotech Co., Ltd. (Guangzhou, China). Cell line HL-7702 (No. BNCC338358) was obtained from Bena Culture Collection (Zhengzhou, China).\n(§2) The human cancer cell lines MDA-MB-231 (breast adenocarcinoma), DLD-1 (colorectal adenocarcinoma), A549 (lung epithelial carcinoma), HCT116 (colorectal adenocarcinoma), HepG2 (hepatocellular carcinoma), and human hepatocyte HL-7702 were cultured in Dulbecco’s modified eagle medium (DMEM, Biological Industries, Beit Haemek, Israel) containing 10% (v/v) fetal bovine serum (FBS, Biological Industries, Beit Haemek, Israel) at 37 °C in a humidified incubator (ThermoFisher, Carlsbad, CA, USA) with a 5% CO2 atmosphere."}, "[2]": {"tested_on": "DLD-1 cells", "assay": "DNA content analysis (cell cycle, flow cytometry) in DLD-1", "assay_type": "cell-based, human", "settings": "24 h", "method": "(§3) Cells were seeded in 6-well plates and allowed to adhere for 24 h at 37 °C. After treatment with different concentrations of the samples for another 24 h, the cells were harvested and washed with PBS, and then, the DNA content analysis was conducted with a cell cycle staining kit (Multi sciences, Hangzhou, China), according to the manufacturer’s instructions. The fluorescence intensity of the cells was measured by flow cytometry (Beckman CytoFlex, Miami, FL, USA)."}, "[3]": {"target": "T1, DNA Topo I (Homo sapiens, UniProt P11387)", "T1 construct": "purchased ThermoFisher, Waltham, MA, USA", "T1 sequence (P11387 1-765)": "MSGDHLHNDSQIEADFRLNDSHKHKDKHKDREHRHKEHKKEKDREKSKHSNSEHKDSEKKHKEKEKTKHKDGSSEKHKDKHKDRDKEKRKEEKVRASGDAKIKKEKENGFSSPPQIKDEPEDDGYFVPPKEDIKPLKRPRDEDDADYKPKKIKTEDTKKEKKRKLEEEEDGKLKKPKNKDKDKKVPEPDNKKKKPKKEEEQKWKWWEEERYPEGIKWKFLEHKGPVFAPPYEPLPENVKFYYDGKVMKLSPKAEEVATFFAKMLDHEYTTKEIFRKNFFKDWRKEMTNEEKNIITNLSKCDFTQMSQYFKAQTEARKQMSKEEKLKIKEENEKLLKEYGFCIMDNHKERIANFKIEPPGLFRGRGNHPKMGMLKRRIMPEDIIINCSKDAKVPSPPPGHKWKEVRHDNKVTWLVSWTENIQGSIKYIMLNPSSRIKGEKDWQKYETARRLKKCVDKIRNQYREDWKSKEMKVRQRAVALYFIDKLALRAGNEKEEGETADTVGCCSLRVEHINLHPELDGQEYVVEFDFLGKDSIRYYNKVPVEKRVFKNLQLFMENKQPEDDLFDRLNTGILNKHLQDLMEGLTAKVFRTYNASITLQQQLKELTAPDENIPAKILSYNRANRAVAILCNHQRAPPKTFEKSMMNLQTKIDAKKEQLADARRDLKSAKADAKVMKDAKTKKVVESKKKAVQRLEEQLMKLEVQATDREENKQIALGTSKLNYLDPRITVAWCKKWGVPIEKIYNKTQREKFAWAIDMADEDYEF", "assay": "Topo I inhibition assay (DNA relaxation assay)", "assay_type": "biochemical", "settings": "DNA relaxation assay, pBR322, mean ± SD", "method": "The DNA relaxation assay was adopted to investigate the compounds’ inhibitory activities on Topo I. Different concentrations of the compounds, dissolved and diluted in DMSO, were added into the relaxation buffer (50 mM Tris, pH 7.5, 50 mM KCl, 10 mM MgCl2, 0.1 mM EDTA, 0.5 Mm dithiothreitol, and 0.05 mg/mL bovine serum albumin) containing 0.2 U Topo I (ThermoFisher, Waltham, MA, USA) and incubated at room temperature for 10 min. After that, 500 ng supercoiled pBR322 plasmid DNA (ThermoFisher, Waltham, MA, USA) was added and then incubated at 37 °C for another 30 min. Finally, the reactions were stopped with a stopping solution (5% sodium dodecyl sulfate, 0.0025% bromophenol blue, and 25% glycerol), and the mixtures were applied onto 0.8% agarose gel and subjected to electrophoresis for 1.5 h in Tris-Acetate-EDTA buffer. After being stained with GelRed (Biotium, Fremont, CA, USA), the gel was imagined with the imaging system (Biotop, Shanghai, China). […] The band density of the supercoiled DNA was quantified by the ImageJ software (version 1.53a, National Institutes of Health, Bethesda, MD, USA), and the inhibition activity is expressed as the percentage inhibition and calculated by formula: Inhibition % = [(A − B)/(C − B)] × 100%, where A is the band density of the tested samples, B is the band density of the negative control, and C is the band density of the blank control."}, "[4]": {"tested_on": "DLD-1 cells", "assay": "Western blot of cell cycle-related proteins in DLD-1", "assay_type": "cell-based, human", "settings": "24 h", "method": "Cells treated with the compounds were harvested, and the total protein was isolated with lysis buffer (72 mM Tris pH 6.8, 2% SDS, 10% glycerol, and 0.1% bromophenol blue). The proteins were subjected to SDS-PAGE and transferred to a 0.45 μm PVDF membrane (Millipore, Burlington, USA). After being blocked with 5% non-fat milk in TBST, the membranes were washed and then incubated with specific primary antibodies (Cdk2 and Cdk6 were purchased from BBI Life Sciences Corporation, Shanghai, China; cyclin A, cyclin B, cyclin D, cyclin E, Cdk1, and Cdk4 were purchased from Proteintech, Rosemont, IL, USA) in TBST containing 2% non-fat milk overnight at 4 °C. After washing, the membranes were incubated with secondary horseradish peroxidase (HRP)-conjugated antibodies at room temperature for 1 h. The blot was visualized using an enhanced chemiluminescence assay kit (Meilunbio, Dalian, China) under a chemiluminescence detector (Tanon, Shanghai, China). The band density of the blot was quantified by the ImageJ software with at least three independent experiments."}, "[5]": {"tested_on": "HCT116", "assay": "SRB cytotoxicity assay, HCT116", "assay_type": "cell-based", "settings": "Homo sapiens, HCT-116; SRB assay, 48 h, mean ± SD; read-out: IC50 Cytotoxicity HCT116", "source_text": "as §1, §2"}, "[6]": {"tested_on": "A549", "assay": "SRB cytotoxicity assay, A549", "assay_type": "cell-based", "settings": "Homo sapiens, A549; SRB assay, 48 h, mean ± SD; read-out: IC50 Cytotoxicity A549", "source_text": "as §1, §2"}, "[7]": {"tested_on": "DLD-1", "assay": "SRB cytotoxicity assay, DLD-1", "assay_type": "cell-based", "settings": "Homo sapiens, DLD-1; SRB assay, 48 h, mean ± SD; read-out: IC50 Cytotoxicity DLD-1", "source_text": "as §1, §2"}, "[8]": {"tested_on": "HCT116 cells", "assay": "DNA content analysis (cell cycle, flow cytometry) in HCT116", "assay_type": "cell-based, human", "settings": "24 h", "method": "as §3\nFigure S21 Results of flavonoid 5 induced cell cycle arrests in HCT116 cells. A)\nRepresentative images of flow-cytometry analysis of DNA content; B) Statistic analysis\nof cells in G1, S, and G2/M phase after treated with 5. After treatment with 2 and 1 μM\ncompounds 5 for 24 h, the percentages of cell population in the G2/M phase\nrespectively, which meant a potent G2/M cell cycle arrest caused by the treatment (P<\n0.0001). In addition, after treatment with 0.5 μM compounds 5 for 24 h, the percentages\nthat an apparent G1 or S phase arrest was induced after the treatment with a lower\ndifferent from the vehicle control. Data are expressed as mean ± SD values from three\n(1 picture or pasted object on this page, not shown here)"}, "[9]": {"tested_on": "HepG2", "assay": "SRB cytotoxicity assay, HepG2", "assay_type": "cell-based", "settings": "Homo sapiens, HepG2; SRB assay, 48 h, mean ± SD; read-out: IC50 Cytotoxicity HepG2", "source_text": "as §1, §2"}, "[10]": {"tested_on": "MDA-MB-231", "assay": "SRB cytotoxicity assay, MDA-MB-231", "assay_type": "cell-based", "settings": "Homo sapiens, MDA-MB-231; SRB assay, 48 h, mean ± SD; read-out: IC50 Cytotoxicity MDA-MB-231", "source_text": "as §1, §2"}},
  "data": [
    {"smiles": "COc1ccc(-c2oc3cc(O)c(OC)c(O)c3c(=O)c2OC)cc1O", "note": "[Compound 5]", "values": [
      {"measurement": "IC50 at 48 h", "setting": "[1]", "value": "14.4 ± 0.45", "unit": "µM"},
      {"measurement": "percentage of cells in the G1/S phase", "setting": "[2]; DLD-1, 0.5 μM", "value": 85.30, "unit": "%"},
      {"measurement": "percentage of cells in the G1/S phase", "setting": "[2]; DLD-1, 1 μM", "value": 76.83, "unit": "%"},
      {"measurement": "percentage of cell population in the G2/M phase", "setting": "[2]; DLD-1, 2 μM", "value": 86.05, "unit": "%"},
      {"measurement": "percentage of cells in the G1/S (combined) phase", "setting": "[2]; DLD-1, 2 μM", "value": 13.46, "unit": "%"},
      {"measurement": "IC50", "setting": "[3]", "value": "146 ± 7.88", "unit": "µM"},
      {"measurement": "expression levels of cyclin A, cyclin B, and CDK6", "setting": "[4]; DLD-1, 2 μM", "value": "potently decreased"},
      {"measurement": "expression of cylcin D, cyclin E, and CDK6", "setting": "[4]; DLD-1, 1 and 0.5 μM", "value": "potent downregulation"},
      {"measurement": "IC50", "setting": "[5]", "value": "0.79 ± 0.13", "unit": "µM"},
      {"measurement": "IC50", "setting": "[6]", "value": "2.16 ± 0.3", "unit": "µM"},
      {"measurement": "IC50", "setting": "[7]", "value": "0.6 ± 0.05", "unit": "µM"},
      {"measurement": "percentage of cells in the G1/S phase", "setting": "[8]; HCT116, 0.5 μM", "value": 91.23, "unit": "%"},
      {"measurement": "percentage of cell population in the G2/M phase", "setting": "[8]; HCT116, 1 μM", "value": 81.84, "unit": "%"},
      {"measurement": "percentage of cells in G1/S (combined) phase", "setting": "[8]; HCT116, 1 μM", "value": 18.13, "unit": "%"},
      {"measurement": "percentage of cell population in the G2/M phase", "setting": "[8]; HCT116, 2 μM", "value": 89.72, "unit": "%"},
      {"measurement": "percentage of cells in G1/S (combined) phase", "setting": "[8]; HCT116, 2 μM", "value": 10.16, "unit": "%"},
      {"measurement": "IC50", "setting": "[9]", "value": "40.3 ± 11.1", "unit": "µM"},
      {"measurement": "IC50", "setting": "[10]", "value": "39.7 ± 4.58", "unit": "µM"}
    ]}
  ]
}
